Assay results: US9963463B2, “Urea-substituted indanes as P38 map kinase inhibitors” (TORRENT PHARMACEUTICALS LIMITED, priority 2014, dated 2018)

Target: T1, purified recombinant human p38 alpha MAPK (Homo sapiens, UniProt Q16539)
T1 construct: purchased Millipore, USA
Experiment: Inhibition of p38 alpha MAPK activity, TR-FRET kinase assay
Format: biochemical
Settings: read-out: P38α Inhibition; for inhibition at 1 µM: Concentration 1 μM
Method: Inhibition of p38 Alpha MAPK Activity: Time-Resolved Fluorescence Resonance Energy Transfer Kinase Standard Assay (TR-FRET Assay)
Compounds of present invention at various concentrations were premixed with DMSO. The experiment was initiated by mixing 0.5%-1.0% DMSO as vehicle/compounds with purified recombinant human p38 alpha MAPK (Millipore, USA) in the wells and 15 min incubation at room temperature. Thereafter, 30 nM of Biotinylated GST-ATF2 (Activation transcription Factor2) and 100 μM of ATP were added in to the wells containing reaction mixture, followed by reincubation for 60 minutes at RT. Reaction was terminated by addition of 10 mM of EDTA and detection reagent containing anti-phosphotheronine ATF2 antibody (PerkinElmer®, USA) labeled with europium chelate and APC (Allophycocyanin) labeled streptavidin, into the reaction mixture which was further incubated for 60 minutes at room temperature. The degree of phosphorylation of the substrate (GST-ATF2) was measured using Envision multimode reader (PerkinElmer®). Percentage inhibition of p38 kinase activity was calculated by determining ratio of specific europium 665 nm energy transfer signal to reference 615 nm signal.

T1 sequence (Q16539 whole entry): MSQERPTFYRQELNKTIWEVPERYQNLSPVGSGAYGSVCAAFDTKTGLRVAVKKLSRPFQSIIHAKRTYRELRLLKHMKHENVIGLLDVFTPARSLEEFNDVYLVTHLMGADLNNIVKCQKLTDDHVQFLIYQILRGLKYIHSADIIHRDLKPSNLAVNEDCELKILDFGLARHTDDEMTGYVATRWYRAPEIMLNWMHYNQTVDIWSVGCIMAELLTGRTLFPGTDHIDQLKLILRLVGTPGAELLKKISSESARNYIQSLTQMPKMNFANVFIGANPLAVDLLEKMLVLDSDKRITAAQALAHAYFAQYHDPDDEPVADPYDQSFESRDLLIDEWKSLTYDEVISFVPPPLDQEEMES

| inhibition at 1 µM | inhibition at 0.1 µM (Concentration 100 nM) | SMILES |
| --- | --- | --- |
| 20 to 40% | – | CC(C)(C)c1cc(NC(=O)Nc2ccc(OCC(=O)N3CCn4c(nnc4C(F)(F)F)C3)c3c2CCC3)n(-c2ccc(C3CCCCC3)cc2)n1 [Compound 3, 1-[3-tert-butyl-1-(4-cyclohexylphenyl)-1H-pyrazol-5-yl]-3-(7-{2-oxo-2-[3-(trifluoromethyl)-5,6-dihydro[1,2,4]triazolo[4,3-a]pyrazin-7(8H)-yl]ethoxy}-2,3-dihydro-1H-inden-4-yl)urea] |
| 80 to 100% | – | CCS(=O)(=O)Nc1cc(C(C)(C)C)cc(NC(=O)Nc2ccc(OCCN3CCn4c(nnc4-c4ccc(O)cc4O)C3)c3c2CCC3)c1OC [Compound 49, N-(5-tert-butyl-3-{[(7-{2-[3-(2,4-dihydroxyphenyl)-5,6-dihydro[1,2,4]triazolo[4,3-a]pyrazin-7(8H)-yl]ethoxy}-2,3-dihydro-1H-inden-4-yl)carbamoyl]amino}-2-methoxyphenyl)ethanesulfonamide] |
| 40 to 60% | – | Cc1ccc(-n2nc(C(C)(C)C)cc2NC(=O)Nc2ccc(OCC(=O)N3CCn4c(nnc4C(F)(F)F)C3)c3c2CCC3)cc1Cl [Compound 56, 1-[3-tert-butyl-1-(3-chloro-4-methylphenyl)-1H-pyrazol-5-yl]-3-(7-{2-oxo-2-[3-(trifluoromethyl)-5,6-dihydro[1,2,4]triazolo[4,3-a]pyrazin-7(8H)-yl]ethoxy}-2,3-dihydro-1H-inden-4-yl)urea] |
| 60 to 80% | – | CC(C)(C)c1cc(NC(=O)Nc2ccc(OCCN3CCN(CC4CC4)C(=O)C3)c3c2CCC3)n(-c2ccc(F)cc2)n1 [Compound 60, 1-[3-tert-butyl-1-(4-fluorophenyl)-1H-pyrazol-5-yl]-3-(7-{2-[4-(cyclopropylmethyl)-3-oxopiperazin-1-yl]ethoxy}-2,3-dihydro-1H-inden-4-yl)urea] |
| 80 to 100% | – | COc1c(NC(=O)Nc2ccc(OCCN3CCn4c(nnc4-c4ccccc4O)C3)c3c2CCC3)cc(C(C)(C)C)cc1NS(C)(=O)=O [Compound 40, N-(5-tert-butyl-3-{[(7-{2-[3-(2-hydroxyphenyl)-5,6-dihydro[1,2,4]triazolo[4,3-a]pyrazin-7(8H)-yl]ethoxy}-2,3-dihydro-1H-inden-4-yl)carbamoyl]amino}-2-methoxyphenyl)methanesulfonamide] |
| 80 to 100% | – | Cc1ccc(-n2nc(C(C)(C)C)cc2NC(=O)Nc2ccc(OCCN3CCn4c(nnc4-c4cccc(Cl)c4O)C3)c3c2CCC3)cc1 [Compound 29, 1-[3-tert-butyl-1-(4-methylphenyl)-1H-pyrazol-5-yl]-3-(7-{2-[3-(3-chloro-2-hydroxyphenyl)-5,6-dihydro[1,2,4]triazolo[4,3-a]pyrazin-7(8H)-yl]ethoxy}-2,3-dihydro-1H-inden-4-yl)urea] |
| 40 to 60% | – | COc1ccc(-c2nnc3n2CCN(C(=O)COc2ccc(NC(=O)Nc4cc(C(C)(C)C)nn4-c4ccccc4)c4c2CCC4)C3)cc1Cl [Compound 58, 1-(3-tert-butyl-1-phenyl-1H-pyrazol-5-yl)-3-(7-{2-[3-(3-chloro-4-methoxyphenyl)-5,6-dihydro[1,2,4]triazolo[4,3-a]pyrazin-7(8H)-yl]-2-oxoethoxy}-2,3-dihydro-1H-inden-4-yl)urea] |
| 80 to 100% | – | Cc1ccc(-n2nc(C(C)(C)C)cc2NC(=O)Nc2ccc(OCCN3CCN(Cc4ccccc4)C(=O)C3)c3c2CCC3)cc1 [Compound 16, 1-{7-[2-(4-benzyl-3-oxopiperazin-1-yl)ethoxy]-2,3-dihydro-1H-inden-4-yl}-3-[3-tert-butyl-1-(4-methylphenyl)-1H-pyrazol-5-yl]urea] |
| 80 to 100% | – | Cc1ccc(-n2nc(C(C)(C)C)cc2NC(=O)Nc2ccc(OCCN3CCn4c(nnc4-c4ccccc4O)C3)c3c2CCC3)cc1 [Compound 15, 1-[3-tert-butyl-1-(4-methylphenyl)-1H-pyrazol-5-yl]-3-(7-{2-[3-(2-hydroxyphenyl)-5,6-dihydro[1,2,4]triazolo[4,3-a]pyrazin-7(8H)-yl]ethoxy}-2,3-dihydro-1H-inden-4-yl)urea] |

More lines, now with the values behind:

| SMILES | inhibition at 1 µM | inhibition at 0.1 µM (Concentration 100 nM) |
| --- | --- | --- |
| Cc1ccc(-n2nc(C(C)(C)C)cc2NC(=O)Nc2ccc(OCCN3CCN(CC4CCCC4)C(=O)C3)c3c2CCC3)cc1 [Compound 21, 1-[3-tert-butyl-1-(4-methylphenyl)-1H-pyrazol-5-yl]-3-(7-{2-[4-(cyclopentylmethyl)-3-oxopiperazin-1-yl]ethoxy}-2,3-dihydro-1H-inden-4-yl)urea] | 80 to 100% | – |
| Cc1ccc(-n2nc(C(C)(C)C)cc2NC(=O)Nc2ccc(OCCN3CCn4c(nnc4-c4ccc(O)c(Cl)c4)C3)c3c2CCC3)cc1 [Compound 31, 1-[3-tert-butyl-1-(4-methylphenyl)-1H-pyrazol-5-yl]-3-(7-{2-[3-(3-chloro-4-hydroxyphenyl)-5,6-dihydro[1,2,4]triazolo[4,3-a]pyrazin-7(8H)-yl]ethoxy}-2,3-dihydro-1H-inden-4-yl)urea] | 80 to 100% | – |
| CC(C)(C)c1cc(NC(=O)Nc2ccc(OCCN3CCN(CC4CC4)C(=O)C3)c3c2CCC3)n(-c2ccccc2)n1 [Compound 61, 1-(3-tert-butyl-1-phenyl-1H-pyrazol-5-yl)-3-(7-{2-[4-(cyclopropylmethyl)-3-oxopiperazin-1-yl]ethoxy}-2,3-dihydro-1H-inden-4-yl)urea] | 60 to 80% | – |
| COc1ccccc1-c1nnc2n1CCN(C(=O)COc1ccc(NC(=O)Nc3cc(C(C)(C)C)nn3-c3ccc(O)c(Cl)c3)c3c1CCC3)C2 [Compound 8, 1-[3-tert-butyl-1-(3-chloro-4-hydroxyphenyl)-1H-pyrazol-5-yl]-3-(7-{2-[3-(2-methoxyphenyl)-5,6-dihydro[1,2,4]triazolo[4,3-a]pyrazin-7(8H)-yl]-2-oxoethoxy}-2,3-dihydro-1H-inden-4-yl)urea] | 80 to 100% | – |
| COc1c(NC(=O)Nc2ccc(OCCN3CCN(CC4CC4)C(=O)C3)c3c2CCC3)cc(C(C)(C)C)cc1NS(C)(=O)=O [Compound 39, N-(5-tert-butyl-3-{[(7-{2-[4-(cyclopropylmethyl)-3-oxopiperazin-1-yl]ethoxy}-2,3-dihydro-1H-inden-4-yl)carbamoyl]amino}-2-methoxyphenyl)methanesulfonamide] | 80 to 100% | – |
| COc1c(NC(=O)Nc2ccc(OCCN3CCn4c(nnc4-c4cc(Cl)ccc4O)C3)c3c2CCC3)cc(C(C)(C)C)cc1NS(C)(=O)=O [Compound 48, N-(5-tert-butyl-3-{[(7-{2-[3-(5-chloro-2-hydroxyphenyl)-5,6-dihydro[1,2,4]triazolo[4,3-a]pyrazin-7(8H)-yl]ethoxy}-2,3-dihydro-1H-inden-4-yl)carbamoyl]amino}-2-methoxyphenyl)methanesulfonamide] | 80 to 100% | – |
| Cc1ccc(-n2nc(C(C)(C)C)cc2NC(=O)Nc2ccc(OCC(=O)N3CCn4c(nnc4-c4ccccc4)C3)c3c2CCC3)cc1 [Compound 57, 1-[3-tert-butyl-1-(4-methylphenyl)-1H-pyrazol-5-yl]-3-{7-[2-oxo-2-(3-phenyl-5,6-dihydro[1,2,4]triazolo[4,3-a]pyrazin-7(8H)-yl)ethoxy]-2,3-dihydro-1H-inden-4-yl}urea] | 60 to 80% | – |
| COc1c(NC(=O)Nc2ccc(OCCN3CCn4c(nnc4-c4ccc(SCCO)cc4)C3)c3c2CCC3)cc(C(C)(C)C)cc1NS(C)(=O)=O [Compound 47, N-(5-tert-butyl-3-{[(7-{2-[3-{4-[(2-hydroxyethyl)sulfanyl]phenyl}-5,6-dihydro[1,2,4]triazolo[4,3-a]pyrazin-7(8H)-yl]ethoxy}-2,3-dihydro-1H-inden-4-yl)carbamoyl]amino}-2-methoxyphenyl)methanesulfonamide] | – | 60 to 80% |
| Cc1ccc(-n2nc(C(C)(C)C)cc2NC(=O)Nc2ccc(OCCN3CCn4c(nnc4-c4cccc5ccccc45)C3)c3c2CCC3)cc1 [Compound 67, 1-[3-tert-butyl-1-(4-methylphenyl)-1H-pyrazol-5-yl]-3-(7-{2-[3-(naphthalen-1-yl)-5,6-dihydro[1,2,4]triazolo[4,3-a]pyrazin-7(8H)-yl]ethoxy}-2,3-dihydro-1H-inden-4-yl)urea] | 60 to 80% | – |
| Cc1ccc(-n2nc(C(C)(C)C)cc2NC(=O)Nc2ccc(OCC(=O)N3CCn4c(nnc4C(F)(F)F)C3)c3c2CCC3)cc1 [Compound 1, 1-[3-tert-butyl-1-(4-methylphenyl)-1H-pyrazol-5-yl]-3-(7-{2-oxo-2-[3-(trifluoromethyl)-5,6-dihydro[1,2,4]triazolo[4,3-a]pyrazin-7(8H)-yl]ethoxy}-2,3-dihydro-1H-inden-4-yl)urea] | 80 to 100% | – |
| CCCN1CCN(CCOc2ccc(NC(=O)Nc3cc(C(C)(C)C)nn3-c3ccc(C)cc3)c3c2CCC3)CC1=O [Compound 59, 1-[3-tert-butyl-1-(4-methylphenyl)-1H-pyrazol-5-yl]-3-{7-[2-(3-oxo-4-propylpiperazin-1-yl)ethoxy]-2,3-dihydro-1H-inden-4-yl}urea] | 60 to 80% | – |
| COc1c(NC(=O)Nc2ccc(OCCN3CCn4c(nnc4C4CCCCC4)C3)c3c2CCC3)cc(C(C)(C)C)cc1NS(C)(=O)=O [Compound 72, N-{5-tert-butyl-3-[({7-[2-(3-cyclohexyl-5,6-dihydro[1,2,4]triazolo[4,3-a]pyrazin-7(8H)-yl)ethoxy]-2,3-dihydro-1H-inden-4-yl}carbamoyl)amino]-2-methoxyphenyl}methanesulfonamide] | 40 to 60% | – |
| CCCCN1CCN(CCOc2ccc(NC(=O)Nc3cc(C(C)(C)C)cc(NS(C)(=O)=O)c3OC)c3c2CCC3)CC1=O [Compound 44, N-{5-tert-butyl-3-[({7-[2-(4-butyl-3-oxopiperazin-1-yl)ethoxy]-2,3-dihydro-1H-inden-4-yl}carbamoyl)amino]-2-methoxyphenyl} methanesulfonamide] | 80 to 100% | – |
